Test results reported in US20150087723A1, “MICROBIAL COMPOSITION” (Rohm and Haas Company, priority 2011, published 2015).
“And” between values parts separate entries of the source, which are not always exact repeats. Equal values may be shown once.

Legend:
[1] = test system: Escherichia coli (E. coli—ATCC #10536); assay: Synergy test: high resolution MBC microtiter plate assay, phosphate buffer containing 35% dipropylene glycol, 15 seconds contact; type: cell-based; settings: E. coli 10536; for SI (Synergy Index = Qa/QA + Qb/QB): at Qa and Qb, <1 synergy, 1 additivity, >1 antagonism
From the text: One measure of synergy is -the industrially accepted method described by Kull, F. C.; Eisman, P. C.; Sylwestrowicz, H. D. and Mayer, R. L., in Applied Microbiology 9:538-541 (1961), using the ratio determined by the formula:
Qa/QA+Qb/QB=Synergy Index (“SI”)
wherein: QA=concentration of compound A (first component) in percent, acting alone, which produced an end point (MBC of Compound A). Qa =concentration of compound A in percent, in the mixture, which produced an end point. QB=concentration of compound B (second component) in percent, acting alone, which produced an end point (MBC of Compound B). Qb=concentration of compound B in percent, in the mixture, which produced an end point.
When the sum of Qa/QA and Qb/QB is greater than one, antagonism is indicated. […] The lower the SI, the greater is the synergy shown by that particular mixture. The minimum biocidal concentration (MBC) of a microbicide is the lowest concentration tested under a specific set of conditions that provides complete kill of the tested microorganisms.
Synergy tests were-conducted using standard microtiter plate assays with, phosphate buffer containing 35% dipropylene glycol (DPG). In this method, a wide range of combinations of chemicals was tested by conducting high resolution MBC assays of Component (A) in the presence of various concentrations of Component (B). High resolution MBCs were determined by adding varying amounts of microbicide to one column of a microtiter plate and doing subsequent ten-fold dilutions using an automated liquid handling system to obtain a series of closely spaced endpoints. The MBC plate was inoculated one column at a time with the test microorganism. An aliquot of the inoculated well was transferred at 15 seconds to a plate containing a neutralizing agent (D/E Neutralizing Broth), mixed and held for 5 minutes before being transferred to a growth plate containing trypticase soy broth (TSB). The TSB plate was incubated at 37° C. and read for the presence/absence of growth at 24 hours. The lowest level tested that provided complete kill (as evidenced by no growth in the microtitre plate) of the test organisms in 15 seconds is the minimum biocidal concentration (MBC).
The synergy of the combinations of the present invention was determined against a bacterium, Escherichia coli (E. coli—ATCC #10536), at a concentration of approximately 1×10^8 bacteria per mL. This microorganism is representative of natural contaminants in many consumer and industrial applications.

[2] = test system: Escherichia coli (E. coli—ATCC #10536); assay: Automated assessment of efficacy in model surfactant base (2.85% sodium cocoyl glycinate + 1.85% sodium lauroamphoacetate, pH 10), 15 seconds exposure, OD450/OD590 readout; type: cell-based; settings: for MBC: Escherichia coli, ATCC10536, 15 s, in 2.85% sodium cocoyl glycinate + 1.85% sodium lauroamphoacetate solution at pH 10, E. coli, read-out: MBC (% w/v); for No. of replicates showing growth (out of 4) / Δ OD 450 nm = OD450 (time = 16 hours) - OD450 (time zero), Mean / Δ OD 590 nm OD590 (time = 16 hours) - OD590 (time zero), Mean: model surfactant solution
Description: Solutions were prepared such that the concentrations of the surfactant components and test actives were 1.1×x the final desired concentration in order to allow for dilution with the bacterial inoculum in the test. The solutions were manually adjusted to pH 10.0 by drop wise addition of sodium hydroxide solution, as measured with a phi meter at ambient temperature.
Tests were conducted using standard microtiter plate assays using an automated liquid handling system, 270 μl of the surfactant test solution was pipetted into each well of the microtitre plate and 30 μl of the bacterial suspension was then added. After exactly 15 seconds of bacterial exposure, a 30 μl volume of bacterial cells was withdrawn and transferred to 270 μl of D/E quench solution. After 5 minutes in the D/E quench, the optical density (OD) was measured for each plate in turn at two specific wavelengths (450 nm and 590 nm). These provide a dual check of antimicrobial activity, as the OD450 reading is specific for the yellow colour of D/E quench when bacterial growth is observed, whereas OD590 is specific for the initial purple colour of the D/E quench which is retained if no bacterial growth is observed. After the time zero OD measurements, plates were then incubated at 37° C. overnight (16 hours) before repeating the OD measurements. Delta OD values were calculated by subtracting […] the initial value at time zero. Bacterial growth is observed as an increase in OD450 and a decrease in ΔOD590. To identify antibacterially efficacious systems (those preventing appreciable bacterial growth after incubation), the following threshold changes in OD readings have been adopted: if (1), OD450 increases by less than 0.2 absorbance unit on incubation and (2). OD590 decreases by less than 0.35 unit on incubation. Conversely, where OD450 increases by more than 0.2 AU and OD590 decreases by more than 0.35 unit after incubation, corresponding to a colour shift from purple to yellow, the test system allows bacterial growth and is not deemed efficacious. Four replicate measurements in the same plate have been made for each test system. The number of replicate wells showing either bacterial growth or no growth is also readily assessed by eye by following the colour change.
Dose responses for individual components and binary mixtures of actives at a used concentration ratio were generated by sequential dilution of liquors with further surfactant solution to obtain a series of endpoints.
In some selected cases, the combinations were also tested at the weight ratio 1:1.

Structure (SMILES): CCCc1ccccc1O [2-n-propylphenol]
- SI (Synergy Index = Qa/QA + Qb/QB) [1]: 1.00
- MBC [2]: 1750 µg/mL
- No. of replicates showing growth (out of 4) ([2]; component alone at 0.125% w/v): 4 out of 4
- Δ OD 450 nm = OD450 (time = 16 hours) - OD450 (time zero), Mean ([2]; component alone at 0.125% w/v): −1.34
- Δ OD 590 nm OD590 (time = 16 hours) - OD590 (time zero), Mean ([2]; component alone at 0.125% w/v): 0.54
- No. of replicates showing growth (out of 4) ([2]; component alone at 0.175% w/v): 0 out of 4
- Δ OD 450 nm = OD450 (time = 16 hours) - OD450 (time zero), Mean ([2]; component alone at 0.175% w/v): −0.10
- Δ OD 590 nm OD590 (time = 16 hours) - OD590 (time zero), Mean ([2]; component alone at 0.175% w/v): 0.09
- No. of replicates showing growth (out of 4) ([2]; component alone at […] w/v): 4 out of 4
- Δ OD 450 nm = OD450 (time = 16 hours) - OD450 (time zero), Mean ([2]; component alone at […] w/v): −1.43
- Δ OD 590 nm OD590 (time = 16 hours) - OD590 (time zero), Mean ([2]; component alone at […] w/v): 0.44

Structure (SMILES): CC(C)=CCC/C(C)=C/CO [(E)-3,7-dimethylocta-2,6-dien-1-ol]
- SI (Synergy Index = Qa/QA + Qb/QB) [1]: 1.00
- Qb: MBC of the second component (B) acting alone (QB) ([1]; component alone (Qa = 0), complete kill in 15 seconds): 0.3 weight % and 0.5 weight % and 0.6 weight %
- MBC [2]: > 5000 µg/mL
- No. of replicates showing growth (out of 4) ([2]; component alone at 0.2% w/v): 4 out of 4
- Δ OD 450 nm = OD450 (time = 16 hours) - OD450 (time zero), Mean ([2]; component alone at 0.2% w/v): −0.54
- Δ OD 590 nm OD590 (time = 16 hours) - OD590 (time zero), Mean ([2]; component alone at 0.2% w/v): 0.60
- No. of replicates showing growth (out of 4) ([2]; component alone at 0.3% w/v): 4 out of 4
- Δ OD 450 nm = OD450 (time = 16 hours) - OD450 (time zero), Mean ([2]; component alone at 0.3% w/v): −0.51
- Δ OD 590 nm OD590 (time = 16 hours) - OD590 (time zero), Mean ([2]; component alone at 0.3% w/v): 0.59
- No. of replicates showing growth (out of 4) ([2]; component alone at 0.4% w/v): 4 out of 4
- Δ OD 450 nm = OD450 (time = 16 hours) - OD450 (time zero), Mean ([2]; component alone at 0.4% w/v): −0.49
- Δ OD 590 nm OD590 (time = 16 hours) - OD590 (time zero), Mean ([2]; component alone at 0.4% w/v): 0.60
- No. of replicates showing growth (out of 4) ([2]; component alone at 0.5% w/v): 4 out of 4
- Δ OD 450 nm = OD450 (time = 16 hours) - OD450 (time zero), Mean ([2]; component alone at 0.5% w/v): −0.45
- Δ OD 590 nm OD590 (time = 16 hours) - OD590 (time zero), Mean ([2]; component alone at 0.5% w/v): 0.62
- No. of replicates showing growth (out of 4) ([2]; component alone at […] w/v): 4 out of 4
- Δ OD 450 nm = OD450 (time = 16 hours) - OD450 (time zero), Mean ([2]; component alone at […] w/v): −0.53
- Δ OD 590 nm OD590 (time = 16 hours) - OD590 (time zero), Mean ([2]; component alone at […] w/v): 0.58
- Terpene alcohol MBC %(w/v) ([2]; terpene alcohol alone, model surfactant, E. Coli): 0.5 %(w/v)
